Experimental data as given in patent publication US20030180249A1, “Dosage forms for hygroscopic active ingredients” (priority 2002, published 2003).

Tests used:
Format in all cases: physicochemical
[1] = Storage stability of valproate resinates (severe conditions): moisture uptake and appearance; details: 40° C., 75% Relative Humidity
Procedure: One gram of each dry resin and resinate were weighed out accurately on an analytical balance in an aluminum dish along with a sample of sodium valproate. They were dried for two hours @60° C. in vaccuo and then placed in an incubator was at 40° C. and 75% Relative Humidity. After 17 hours the samples were removed from the incubator and weighed and observations on appearance were noted. % weight increases were calculated.

[2] = Storage stability of valproate resinates (ambient conditions): appearance over time; details: ambient 25° C., 56% relative humidity
Procedure: The samples from Example 3 were re-dried @60° C. in vaccuo overnight and then exposed to ambient conditions. During the test the ambient temperature was 25° C. and relative humidity was 56%.

[3] = Release of valproate from resinate, flow-thru filtration cell, USP 24 valproic acid dissolution medium; details: 37° C., equivalent of 60 mg sodium valproate
Procedure: The release of valproate from Resinate A was evaluated and compared to that of sodium valproate. The evaluation was performed using a 50 ml Millipore flow-thru filtration cell operated at 37° C. The dissolution medium was prepared as described in the US Pharmacopeia 24 monograph for Valproic Acid (page 1733).
An amount for resinate containing the equivalent of 60 mg of sodium valproate was used for one test and 60 mg of sodium valproate for the other. Fractions were collected at 20, 40, and 60 minutes. Sample preparation and analysis were done according to the US Pharmacopeia 24 monograph for Valproic Acid (page 1733).

- Moisture uptake (%) ([1]; 17 hours, after drying 2 h at 60° C. in vacuo): 40.4%
- Observation (appearance) ([1]; after 17 hours): Liquid
- Observation (appearance) ([2]; time 7:30): Sodium valproate sample is sticky;
- Observation (appearance) ([2]; time 7:45): Sodium valproate sample is sticky;
- % Valproate dissolved or released, 20 mins ([3]; 20 mins): 81.9%
- % Valproate dissolved or released, 40 mins ([3]; 40 mins): 97.8%
- % Valproate dissolved or released, 60 mins ([3]; 60 mins): 100%
- Total release [3]: 60.1 mg
SMILES: CCCC(CCC)C(=O)[O-].[Na+] [Na Valproate, sodium valproate]
